From patent US11806393B2, “Flavivirus peptide sequences, epitopes, and methods and uses thereof” (priority 2017, dated 2023) come the findings set out here.

Holding throughout (format): cell-based, mouse
For experiment [1], the system named is CD3+CD8+ T cells. Description: IFNγ ICS, ZIKV-infected Ifnar-/- HLA-B*0702 transgenic mice. As to conditions: for % IFNγ+ CD8+ T cells, FSS13025 / % IFNγ+ CD8+ T cells, MR766: HLA-B*0702 mice; for % IFNγ+ CD8+ T cells, FSS13025: 7 days after ZIKV FSS13025, ICS; for % IFNγ+ CD8+ T cells, MR766: 7 days after ZIKV MR766, ICS; for simultaneous IFNγ and TNFα production by peptide-stimulated CD8+ T cells: ZIKV MR766-infected mice.

Experiment [2] has as its system CD8+ T cells. Description: IFNγ ELISPOT, DENV2 S221-infected Ifnar-/- HLA-B*0702 transgenic mice. As to conditions: HLA-B*0702 mice, 7 days after 2×10^4 FFU DENV2 S221. As to the method:
(§1) Two ZIKV strains, MR766 (Uganda, 1947) and FSS13025 (Cambodia, 2010), were obtained from the World Reference Center for Emerging Viruses and Arboviruses (WRCEVA). The mouse-adapted DENV2 strain S221 is a triple-plaque purified clone derived from DENV2 D2S1038. Both ZIKV and DENV2 were amplified in C6/36 mosquito cells, and viral titers were measured using baby hamster kidney (BHK)-21 cell-based focus forming assay (FFA). For epitope screening, 5-week old mice (female or male) were infected retro-orbitally (R.O.) with either 1×102 FFU of ZIKV FSS13025 or ZIKV MR766, or 2×10^4 FFU of DENV2 S221 in 200 μl 10% FBS/PBS. Seven days after infection, CD8^+ T cells were isolated from splenocytes and used for ELISPOT assay, while the splenocytes were directly used for ICS assay. Additionally, 5-week old mice were inoculated I.P. with 2×10^3 FFU of DENV2 S221 for 4 weeks.
CD8^+ T cells were isolated from splenocytes using magnetic bead positive selection (Miltenyi Biotec, Germany) 7 days after virus infection. 2×10^5 CD8^+ T cells were stimulated with 1×10^5 LPS-blasts loaded with 10 μg of individual peptide in 96-well flat-bottom plates (IMMOBILON™-P; Millipore, Bedford, Mass.) that were coated with anti-IFNγ mAb (clone AN18; Mabtech, Stockholm, Sweden) in triplicate. Concanavalin A (ConA) was used as positive control. After 20 hours of incubation, biotinylated anti-mouse IFNγ mAb (R4-6A2; Mabtech), followed by ABC peroxidase (Vector Laboratories, Burlingame, Calif., USA) and then 3-amino-9-ethylcarbazole (Sigma-Aldrich, St. Louis, Mo., USA) were added into the wells. […] A peptide inducing a magnitude of >500 SFCs/10^6 CD8^+ T cells was considered as an immunodominant peptide.
(§2) The following results are with respect to FIG. 14A and FIG. 14B, where Ifnar^−/− HLA-B*0702 transgenic mice were infected R.O. with 2×10^4 FFU of DENV2 strain S221 for 7 days. CD8^+ T cells isolated from splenocytes were stimulated with each of the 37 ZIKV epitopes identified via IFNγELISPOT to perform (FIG. 14A) IFNγELISPOT and (FIG. 14B) ICS assay. Data represent the average of two independent IFNγELISPOT experiments and two independent ICS experiments (n=7 mice) and are expressed as mean±SEM. Dotted line corresponds to the cutoff value. *, P<0.05.

Experiment [3] relates to CD8+ T cells. Put plainly: IFNγ ICS, DENV2 S221-infected Ifnar-/- HLA-B*0702 transgenic mice. As to conditions: HLA-B*0702 mice; for % IFNγ+ CD8+ T cells, S221: 7 days after DENV2 S221, ICS; for ZIKV/DENV cross-reactivity in DENV2-infected mice (IFNγ ELISPOT and IFNγ ICS): DENV2 S221, 7 days. As to the method: as §1
(§3) Spleens were harvested from virus-infected, mock-immunized, or peptide-immunized mice. 1×10^6 splenocytes were plated in each well of 96-well U-bottom plates and stimulated with individual peptide (10 μg crude peptide or 1 μg pure peptide per well) for 6 hours. Five hours before the end of incubation, Brefeldin A (GolgiPlug; BD Biosciences) and PE-conjugated anti CD107a mAb (clone 1D4B, eBioscience) were added to the cells. Splenocytes stimulated with PMA-ionomycin were used as the positive control, while cells without any stimulation were the negative control. […] Samples were run using an LSR™ II (BD Biosciences) and analyzed using FLOWJO™ software X 10.0.7 (Tree Star, Ashland, Oreg.).
as §2

The test system of experiment [4] is CD44+CD62L- CD8+ T cells. Description: ICS, peptide-immunized Ifnar-/- HLA-B*0702 mice challenged with ZIKV. As to conditions: mice immunized with the 4 ZIKV/DENV cross-reactive peptides, day 3 after ZIKV challenge.
Text: Two HLA-B*0702-binding ZIKV-specific peptides (FSS-NS2A133-141(SEQ ID NO: 41) and FSS/MR766-NS2B68-75 (SEQ ID NO: 45)) and four ZIKV/DENV cross-reactive peptides (FSS/MR766-NS4B426-435 (SEQ ID NO: 60), FSS/MR766-NS2A75-84 (SEQ ID NO: 39), FSS/MR766-NS3206-215 (SEQ ID NO: 47), and FSS/MR766-NS3574-582 (SEQ ID NO: 52)) were chosen for synthesis. Five HLA-A*0101-binding peptides (FSS/MR-E159-167 (SEQ ID NO: 70), FSS/MR-E195-203 (SEQ ID NO: 71), FSS/MR-NS123-31 (SEQ ID NO: 74), FSS/MR-NS4B231-239 (SEQ ID NO: 77), and FSS/MR-NS5509-517 (SEQ ID NO: 79)) were chosen for synthesis. Mice (both female and male; 5-6 weeks of age) were immunized subcutaneously with a mixture of HCV helper peptide (100 μg/mouse) and 3 or 4 HLA-B*0702-binding peptides (50 μg/peptide/mouse) emulsified in Complete Freund's Adjuvant (CFA). Mock group mice received the same immunization strategy but without any ZIKV-specific or ZIKV/DENV cross-reactive peptide. On the 21st day, mice were boosted with the same peptide mixtures emulsified in Incomplete Freund's Adjuvant (IFA). […] Three days post ZIKV infection mice were sacrificed, and serum and spleen were harvested. The splenocytes were used for ICS assay. After cardiac perfusion with PBS, brain was harvested. The levels of infectious ZIKV in serum and brain were measured using FFA.
as §3
Peptide groups received corresponding peptide immunizations as described in Materials and Methods. […] CD3^+CD8^+CD44^+CD62L− T cells were gated and the percentages of IFNγ^+ and/or TNFα^+ cells in a representative mouse from mock (FIG. 12A) and peptide (FIG. 12B) groups were determined by ICS. The levels of infectious ZIKV in sera and brains were measured via FFA. Data were expressed as mean±SEM. *, P<0.05; **, P<0.01; ***, P<0.001. Two-tailed Mann-Whitney test.

Consider RPALLVSFIF [FSS/MR-NS2A75-84], for which, in experiment [1], the “% IFNγ+ CD8+ T cells, FSS13025” value is listed as “(0.53%)”; the “% IFNγ+ CD8+ T cells, MR766” value is given as “(2.04%)”; the “simultaneous IFNγ and TNFα production by peptide-stimulated CD8+ T cells” value was “stimulated simultaneous production of IFNγ and TNFα”. For the same sequence, the “SFC/10^6 CD8+ T cells, S221” value in experiment [2] is listed as 88 SFC/10^6 CD8+ T cells. Further, in experiment [3], the “% IFNγ+ CD8+ T cells, S221” value is on record as “(0.58%)”; the “ZIKV/DENV cross-reactivity in DENV2-infected mice (IFNγ ELISPOT and IFNγ ICS)” value was “positive in both IFNγ ELISPOT and IFNγICS assays”. Further, the “percentage of epitope-specific cells among antigen experienced (CD44+CD62L-) CD8+ T cells” value in experiment [4] was 3.27±1.91%.
As for KPRWMDARV [FSS/MR-NS3574-582], in experiment [1], the “% IFNγ+ CD8+ T cells, FSS13025” value was “(0.79%)”; the “% IFNγ+ CD8+ T cells, MR766” value is “(1.9%)”; the “simultaneous IFNγ and TNFα production by peptide-stimulated CD8+ T cells” value was “stimulated simultaneous production of IFNγ and TNFα”. In experiment [2], the “SFC/10^6 CD8+ T cells, S221” value came out at 350 SFC/10^6 CD8+ T cells. Further, in experiment [3], the “% IFNγ+ CD8+ T cells, S221” value was “(0.63%)”; the “ZIKV/DENV cross-reactivity in DENV2-infected mice (IFNγ ELISPOT and IFNγ ICS)” value was “positive in both IFNγ ELISPOT and IFNγICS assays”. Also, the “percentage of epitope-specific cells among antigen experienced (CD44+CD62L-) CD8+ T cells” value in experiment [4] is reported as 0.84±0.39%.
